# From patent US11680264B2, “Methods of modulating melanosome pH and melanin level in cells” (Cornell University, priority 2016, dated 2023)
# How the values were obtained:
# [1] = tested on: sAC^KO mouse melanocytes; assay: Cellular eumelanin content; type: cell-based; conditions: 96 hours
# Description: (§1) FIGS. 15A-15J provide the results of experiments analyzing the effect of sAC activity on melanin production. FIG. 15A is a graph illustrating the cellular eumelanin and pheomelanin content in sAC^FF (FF) and sAC^KO (KO) mouse melanocytes. Numbers above bars represent the ratio of pheomelanin to eumelanin. Average of triplicate determinations. FIG. 15B is a graph illustrating the cellular eumelanin content of sAC^FF and sAC^KO mouse melanocytes grown for 96 hours in the absence (−, DMSO) or presence of KH7 (+, 30 μM). Average of triplicate determinations. FIG. 15C is a graph illustrating the fold over baseline cellular eumelanin level of human melanocytes (n=8) treated with KH7 (30 μM) or vehicle (DMSO) for 48 hours. All assays performed in triplicate. Students t-test **P<0.01, ****P<0.0001. FIG. 15D is images of cell pellets of sAC^FF and sAC^KO mouse melanocytes. FIG. 15E is a graph of the melanin levels of pairs of sAC^FF and sAC^KO mouse melanocytes. FIGS. 15F and 15G are images of cell pellets of sAC^FF mouse melanocytes grown in the absence (DMSO, FIGS. 15G and 15F, left panels) or presence of KH7 (FIG. 15G, 30 μM, right panel) or LRE1 (FIG. 15F, 50 μM, right panel) for 96 hours. FIG. 15H is images of cell pellets of human melanocytes (C226, C38) treated with vehicle control (DMSO, left) or KH7 (30 μM, right) for 48 hours. FIG. 15I is images of cell pellets of human melanocytes (C226) treated with vehicle control (DMSO, left) or ESl-09 (10 μM, right) for 48 hours. FIG. 15J is a graph illustrating the fold over baseline cellular (eumelanin) level of human melanocytes treated with ESl-09 (10 μM) or vehicle (DMSO) for 48 hours (n=3, distinct human cell lines). For FIGS. 15E and 15J Students t-test, *p<0.05, **p<0.01, ****p<0.0001.
# [2] = tested on: sAC^FF mouse melanocytes; assay: Cellular eumelanin content; type: cell-based; conditions: KH7 30 μM or LRE1 50 μM, 96 hours
# Description: as §1
# [3] = tested on: C3H/HeJ mice; assay: Topical treatment of ear, epidermal pigmentation (Fontana Masson); type: in vivo, mouse; conditions: topical on right ear, twice a day for two weeks
# Description: Melanocytes also exist in the epidermis at specific areas of mouse skin (e.g., pinnae) (Nordlund et al., Dermatol Clin., 4(3): 407-418 (1986)); thus, these areas were studied to examine the role of sAC in epidermal pigmentation. For analysis of epidermal pigmentation, using C3H/HeJ mice as above, 20 μl of KH7 ([…]), LRE1 (28 mg/ml) or DMSO (vehicle control) was topically applied on the right ear and DMSO was topically applied on the left ear twice a day for two weeks. Ear skin was monitored daily for irritation and changes in pigmentation. After two weeks, mice were euthanized and the treated skin was submitted to a blinded animal pathologist for histological evaluation of the epidermis and special stains (Fontana Masson). This experiment was performed twice with 3 mice per cohort (total n=6)
smiles,measurement,setting,value
CC(Sc1nc2ccccc2[nH]1)C(=O)N/N=C/c1cc(Br)ccc1O (stereo not shown) [KH7],eumelanin levels,[1],had no effect
same,eumelanin levels,[2],increased eumelanin levels
same,colour of ear epidermis relative to vehicle control,[3]; 20 μl KH7 or LRE1 (28 mg/ml),induced visual darkening of mouse ear epidermis
same,epidermal melanin accumulation (Fontana Masson),[3],increase in epidermal melanin accumulation
